The results in this text go back to patent US12686690B2, “Macrocyclic urea orexin receptor agonists” (Merck Sharp & Dohme LLC, priority 2020, dated 2026).

This experiment deals with T1, hOX2R (Homo sapiens, UniProt O43614).
T1 construct: expressed in transfected cells; host or cells: CHO cells (G418 selection)
T1 sequence (O43614 1-444): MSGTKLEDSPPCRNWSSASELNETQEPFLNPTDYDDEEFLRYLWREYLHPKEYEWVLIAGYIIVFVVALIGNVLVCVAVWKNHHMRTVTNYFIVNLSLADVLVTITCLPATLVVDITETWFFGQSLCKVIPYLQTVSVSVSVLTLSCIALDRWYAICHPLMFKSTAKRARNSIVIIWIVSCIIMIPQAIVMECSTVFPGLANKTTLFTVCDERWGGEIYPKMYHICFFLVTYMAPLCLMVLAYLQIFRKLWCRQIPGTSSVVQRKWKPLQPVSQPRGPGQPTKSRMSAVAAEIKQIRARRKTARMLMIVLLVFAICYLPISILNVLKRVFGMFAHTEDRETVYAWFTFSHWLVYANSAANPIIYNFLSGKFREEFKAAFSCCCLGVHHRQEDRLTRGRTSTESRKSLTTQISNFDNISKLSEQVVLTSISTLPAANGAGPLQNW
Description: hOX2R IPone assay (orexin receptor agonism). Conditions: IPone readout; for hOX2R_Ipone max %act: maximal activation; for EC50: orexin receptor agonist, read-out: hOX2R_IPone EC50. The format is cell-based.

For the compound `CCCC1CCCCCOc2nc(cn3ccnc23)-c2cc(ncc2OC)[C@@H](C)N(CC)C(=O)N1` (single isomer, unassigned) [Example 54A], the hOX2R_Ipone max %act was found to be 102% and the EC50 (usually the concentration at which the effect is half-maximal) stood at 143 nM.

As to `CCN1C(=O)N[C@@H](CCC(C)(F)F)CCOCCOc2nc(nn3ccnc23)-c2cc(ncc2OC)[C@H]1C` [Example 155, (3R,7S,E)-7-(3,3-difluorobutyl)-4-ethyl-25-methoxy-3-methyl-10,13-dioxa-4,6-diaza-1(2,4)-imidazo[2,1-f][1,2,4]triazina-2(4,2)-pyridinacyclotridecaphan-5-one], the hOX2R_Ipone max %act came out at 96.86% and the EC50 was found to be 0.74 nM.

On to `CCN1Cc2ccc(OC)c(c2)-c2cn3ccnc3c(n2)OCCCC[C@H](CCC(F)(F)F)NC1=O` [Example 44, (16R)-13-ethyl-8-methoxy-16-(3,3,3-trifluoropropyl)-12,13,15,16,17,18,19,20-octahydro-14H-6,22-(azeno)-11,7-(metheno)imidazo[2,1-c][1,4,13,15]oxatriaza-cycloicosin-14-one], for which the hOX2R_Ipone max %act was determined as 100.4% and the concentration giving a half-maximal response (EC50) came to 1 nM.

In the case of `CCN1C(=O)N[C@@H](CCC(F)(F)F)CCCCCCOc2nc(cn3ccnc23)-c2cc(ncc2OC)[C@H]1C` [Example 109, (3R,7R,E)-4-ethyl-25-methoxy-3-methyl-7-(3,3,3-trifluoropropyl)-14-oxa-4,6-diaza-1(6,8)-imidazo[1,2-a]pyrazina-2(4,2)-pyridinacyclotetra-decaphan-5-one], the hOX2R_Ipone max %act came to 102.4% and the EC50 was 1.5 nM.

For the compound `CCN1C(=O)N[C@@H](CCC(F)(F)F)CCCCCOc2nc(cn3ccnc23)-c2cc(ncc2C)[C@H]1C` [Example 79, (12R,16R)-13-ethyl-8,12-dimethyl-16-(3,3,3-trifluoro-propyl)-12,13,16,17, 18,19,20,21-octa-hydro-6,23-(azeno)-11,7-(metheno) imidazo[2,1-c][1,4,10, 13,15]oxatetraazacyclo-henicosin-14(15H)-one], the hOX2R_Ipone max %act was found to be 99.3% and the EC50 stood at 1 nM.

With `CCN1C(=O)N[C@@H](CC(F)(F)F)CCCCCOc2nc(nn3ccnc23)-c2ccnc(c2)[C@H]1C` [Example 101, (12R,16R)-13-ethyl-12-methyl-16-(2,2,2-trifluoroethyl)-12,13,16,17,18,19,20, 21-octahydro-6,23-(azeno)-11,7-(metheno)imidazo[2,1-c][1,4,5,10,13,15] oxapentaazacycloheni-cosin-14(15H)-one], the hOX2R_Ipone max %act is 97.69% and the EC50 was 248 nM.

Regarding `CCN1C(=O)NC2CC2CCCCOc2cn3ccnc3c(n2)-c2cc(ncc2OC)C1C` [Example 145, (3R,E)-4-ethyl-25-methoxy-3-methyl-12-oxa-4,6-diaza-1(6,8)-imidazo[1,2-a]pyrazina-2(4,2)-pyridina-7(1,2)-cyclopropanacyclododecaphan-5-one], the hOX2R_Ipone max %act was found to be 103.8% and the EC50 came to 4.4 nM.

As for `CCN1C(=O)NC(C(N)=O)CCCCCOc2nc(cn3ccnc23)-c2cc(ncc2F)[C@H]1C` (stereo partly drawn) [Example 225, (3R,E)-4-ethyl-25-fluoro-3-methyl-5-oxo-13-oxa-4,6-diaza-1(6,8)-imidazo[1,2-a]pyrazina-2(4,2)-pyridinacyclotridecaphane-7-carboxamide], the hOX2R_Ipone max %act was determined as 78.64% and the EC50 was found to be 286 nM.

Take `CCN1C(=O)NC(C)CCCCCOc2nc(cn3ccnc23)-c2cc(ncc2OC)[C@H]1C` (single isomer, unassigned) [Example 9A]: the hOX2R_Ipone max %act was found to be 99.27% and the EC50 is 416 nM.

Take `CCN1C(=O)NC(COC(C)C)CCCCCOc2nc(cn3ccnc23)-c2cc(ncc2OC)[C@H]1C` (stereo partly drawn) [Example 185, (3R,E)-4-ethyl-7-(isopropoxymethyl)-25-methoxy-3-methyl-13-oxa-4,6-diaza-1(6,8)-imidazo[1,2-a]pyrazina-2(4,2)-pyridinacyclotridecaphan-5-one]: the hOX2R_Ipone max %act was determined as 102.1% and the EC50 was 2.03 nM.

As to `CCN1C(=O)N[C@@H](CCC(F)(F)F)CCCCCOc2nc(cn3ccnc23)C2=C(C3CC3)N=C(O2)[C@H]1C` [Example 211, (9R,13R,E)-14-Cyclopropyl-12-ethyl-13-methyl-9-(3,3,3-trifluoropropyl)-3-oxa-10,12-diaza-1(5,2)-oxazola-2(6,8)-imidazo[1,2-a]pyrazinacyclotridecaphan-11-one], the hOX2R_Ipone max %act turned out to be 99.83% and the EC50 is 1.13 nM.

In the case of `CCN1C(=O)N[C@@H](CCC(F)(F)F)CCCCCc2cc(cn3ccnc23)-c2nc(ccc2OC)[C@H]1C` [Example 138, (3R,7R,Z)-4-ethyl-23-methoxy-3-methyl-7-(3,3,3-trifluoropropyl)-4,6-diaza-1(6,8)-imidazo[1,2-a]pyridina-2(2,6)-pyridinacyclododecaphan-5-one], the hOX2R_Ipone max %act was determined as 100.1% and the EC50 turned out to be 8.48 nM.

In the case of `CCN1C(=O)NC(CCC(F)(F)F)COCCCOc2nc(cn3ccnc23)-c2cc(ncc2OC)[C@H]1C` (single isomer, unassigned) [Example 21A], the hOX2R_Ipone max %act is listed as 100.4% and the EC50 was found to be 19.6 nM.

On to `CCN1C(=O)NCCN(C(C)C)CCOc2nc(cn3ccnc23)-c2cccc(c2)[C@H]1C` [Example 3, (12R)-13-ethyl-12-methyl-18-(propan-2-yl)-12,13,15,16,17,18,19,20-octahydro-14H-6,22-(azeno)-11,7-(metheno)imidazo[1,2-r][1,4,7,9,18]oxatetraaza-cycloicosin-14-one], for which the hOX2R_Ipone max %act was found to be 88.8% and the EC50 is 2500 nM.

With `CCN1C(=O)N[C@@H](CCC(F)(F)F)CCCCCOc2nc(cn3ccnc23)-c2ccnc(c2)[C@H]1C` [Example 110, (3R,7R,E)-4-ethyl-3-methyl-7-(3,3,3-trifluoropropyl)-13-oxa-4,6-diaza-1(6,8)-imidazo[1,2-a]pyrazina-2(4,2)-pyridinacyclotridecaphan-5-one], the hOX2R_Ipone max %act came out at 100.2% and the EC50 came out at 1.3 nM.

As for `CCN1C(=O)N[C@@H](CCC(F)(F)F)CCCCCOc2nc(cn3ccnc23)-c2cc(ncn2)C1C` (stereo partly drawn) [Example 112B, (16R)-13-ethyl-12-methyl-16-(3,3,3-trifluoropropyl)-12,13,16,17,18,19,20,21-octahydro-6,23-(azeno)-11,7-(metheno)imidazo[2,1-c][1,4,8,10,13,15]oxapentaazacyclohenicosin-14(15H)-one], the hOX2R_Ipone max %act was 101.8% and the EC50 is 9.3 nM.

Turning to `CCN1C(=O)N[C@@H](CCC(F)(F)F)CCOCCOc2nc(cn3ccnc23)-c2cc(ccn2)[C@H]1C` [Example 161, (3R,7S,E)-4-ethyl-3-methyl-7-(3,3,3-trifluoropropyl)-10,13-dioxa-4,6-diaza-1(6,8)-imidazo[1,2-a]pyrazina-2(2,4)-pyridinacyclotridecaphan-5-one], the hOX2R_Ipone max %act is on record as 101.7% and the EC50 was 2.66 nM.

As to `CCN1C(=O)NC(CCC(C)F)CCCCCOc2nc(cn3ccnc23)-c2cc(ncc2OC)[C@H]1C` (single isomer, unassigned) [Example 72B], the hOX2R_Ipone max %act is 102.7% and the concentration for a half-maximal effect (EC50) is 0.7 nM.

In the case of `CCN1C(=O)NC(CCC(C)(C)F)CCCCCOc2nc(cn3ccnc23)-c2cc(ncc2OC)[C@H]1C` (single isomer, unassigned) [Example 71A], the hOX2R_Ipone max %act is reported as 100.5% and the EC50 is 4.2 nM.

Consider `CCN1C(=O)NC(CCC(F)(F)F)CC(C)CCOc2nc(cn3ccnc23)-c2cccc(c2)[C@H]1C` (single isomer, unassigned) [Example 48B], for which the hOX2R_Ipone max %act came to 99.9% and the EC50 was 88.8 nM.

Regarding `CCN1C(=O)N[C@@H](CCC(C)(F)F)CCCCCOc2nc(c(C)n3ccnc23)-c2cc(ccn2)[C@H]1C` [Example 160, (3R,7R,E)-7-(3,3-difluorobutyl)-4-ethyl-15,3-dimethyl-13-oxa-4,6-diaza-1(6,8)-imidazo[1,2-a]pyrazina-2(2,4)-pyridinacyclotridecaphan-5-one], the hOX2R_Ipone max %act was found to be 101.4% and the EC50 was 0.77 nM.

On to `CCN1C(=O)NC(C2CC2)CCCCCOc2nc(cn3ccnc23)-c2cc(ncc2OC)[C@H]1C` (single isomer, unassigned) [Example 57B], for which the hOX2R_Ipone max %act came to 101.6% and the EC50 is 1.2 nM.

On to `CCN1C(=O)NCCOCCCOc2nc(cn3ccnc23)-c2cc(ncc2OC)[C@H]1C` [Example 8, (12R)-13-ethyl-8-methoxy-12-methyl-12,13,16,17,20,21-hexahydro-19H-6,23-(azeno)-11,7-(metheno)imidazo[1,2-o][1,18,4,6,9,15]dioxatetra-azacyclohenicosin-14(15H)-one], for which the hOX2R_Ipone max %act is recorded as 100.2% and the EC50 came out at 13.6 nM.

As for `CCN1C(=O)NCCN2CCCC(C2)Oc2nc(cn3ccnc23)-c2cccc(c2)[C@H]1C` (mixture of isomers) [Example 5, (7R)-8-ethyl-7-methyl-18-oxa-8,10,13,21,24,26-hexaazapentacyclo[17.6.1.1~ 2,6~.1~13,17~.0~20,24~] octacosa-1(25),2(28),3,5,19(26),20,22-heptaen-9-one (non-preferred name)], the hOX2R_Ipone max %act was found to be 93.82% and the EC50 was found to be 1380 nM.

Regarding `CCN1C(=O)NC(CC2CC2(F)F)CCCCCOc2nc(cn3ccnc23)-c2cc(ncc2OC)[C@H]1C` (single isomer, unassigned) [Example 59C], the hOX2R_Ipone max %act is given as 99.3% and the EC50 stood at 0.5 nM.
